Test results published in patent publication US12662465B2, “EGFR inhibitors” (Blueprint Medicines Corporation, priority 2021, dated 2026).

Experiments:
EGFR enzyme = biological target: T1, EGFR enzyme (Homo sapiens, UniProt P00533); test: Biochemical EGFR inhibition assays (Biological Example 1), enzyme form not specified; settings: Biological Example/Assay 1; read-out: inhibitory activity
T1 construct: From knowledge only, the SignalChem E10-1xx 'G' products are GST-tagged cytoplasmic-domain constructs

EGFR L858R = biological target: T2, EGFR L858R (Homo sapiens, UniProt P00533, L858R); test: Biochemical EGFR inhibition assay (Caliper mobility shift), EGFR L858R; settings: read-out: Enz EGFR_L858R IC50
T2 construct: purchased SignalChem E10-122BG

EGFR (d746-750) = biological target: T3, EGFR (d746-750) (Homo sapiens, UniProt P00533, DEL746-750); test: Biochemical EGFR inhibition assay (Caliper mobility shift), EGFR (d746-750); settings: read-out: Enz EGFR_Exon19-del746-750 IC50
T3 construct: purchased SignalChem E10-122JG

[1] = biological target: intracellular phosphorylation of EGFR (Tyr1068) in PC-9 cells (Ex19Del) (Homo sapiens, UniProt P00533, DEL746-750); test: PC-9 pEGFR AlphaLISA assay; assay type: cell-based; settings: 4 hours compound incubation, read-out: Ext pEGFR_PC-9 Ex19Del IC50
EGFR M+ NSCLC patients = settings: first line (1L), NSCLC harboring del19 and L858R mutations; cited from earlier work

T3 sequence (P00533 with tags, fused parts or gaps DEL746-750 limits assumed): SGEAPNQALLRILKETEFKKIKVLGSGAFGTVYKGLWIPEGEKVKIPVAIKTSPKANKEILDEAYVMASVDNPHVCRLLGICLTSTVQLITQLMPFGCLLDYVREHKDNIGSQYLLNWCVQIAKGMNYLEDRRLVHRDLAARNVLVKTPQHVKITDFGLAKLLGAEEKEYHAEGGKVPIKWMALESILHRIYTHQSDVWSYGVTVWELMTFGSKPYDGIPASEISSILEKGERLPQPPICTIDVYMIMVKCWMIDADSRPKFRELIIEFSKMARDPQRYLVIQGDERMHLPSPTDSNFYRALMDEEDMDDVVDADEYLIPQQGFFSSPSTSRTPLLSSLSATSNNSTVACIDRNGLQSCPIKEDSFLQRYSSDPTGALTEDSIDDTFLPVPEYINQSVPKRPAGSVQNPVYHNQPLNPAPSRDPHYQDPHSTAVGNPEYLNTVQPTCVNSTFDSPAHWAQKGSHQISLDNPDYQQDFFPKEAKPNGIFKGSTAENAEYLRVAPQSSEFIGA
T2 sequence (P00533 25-1210 L858R): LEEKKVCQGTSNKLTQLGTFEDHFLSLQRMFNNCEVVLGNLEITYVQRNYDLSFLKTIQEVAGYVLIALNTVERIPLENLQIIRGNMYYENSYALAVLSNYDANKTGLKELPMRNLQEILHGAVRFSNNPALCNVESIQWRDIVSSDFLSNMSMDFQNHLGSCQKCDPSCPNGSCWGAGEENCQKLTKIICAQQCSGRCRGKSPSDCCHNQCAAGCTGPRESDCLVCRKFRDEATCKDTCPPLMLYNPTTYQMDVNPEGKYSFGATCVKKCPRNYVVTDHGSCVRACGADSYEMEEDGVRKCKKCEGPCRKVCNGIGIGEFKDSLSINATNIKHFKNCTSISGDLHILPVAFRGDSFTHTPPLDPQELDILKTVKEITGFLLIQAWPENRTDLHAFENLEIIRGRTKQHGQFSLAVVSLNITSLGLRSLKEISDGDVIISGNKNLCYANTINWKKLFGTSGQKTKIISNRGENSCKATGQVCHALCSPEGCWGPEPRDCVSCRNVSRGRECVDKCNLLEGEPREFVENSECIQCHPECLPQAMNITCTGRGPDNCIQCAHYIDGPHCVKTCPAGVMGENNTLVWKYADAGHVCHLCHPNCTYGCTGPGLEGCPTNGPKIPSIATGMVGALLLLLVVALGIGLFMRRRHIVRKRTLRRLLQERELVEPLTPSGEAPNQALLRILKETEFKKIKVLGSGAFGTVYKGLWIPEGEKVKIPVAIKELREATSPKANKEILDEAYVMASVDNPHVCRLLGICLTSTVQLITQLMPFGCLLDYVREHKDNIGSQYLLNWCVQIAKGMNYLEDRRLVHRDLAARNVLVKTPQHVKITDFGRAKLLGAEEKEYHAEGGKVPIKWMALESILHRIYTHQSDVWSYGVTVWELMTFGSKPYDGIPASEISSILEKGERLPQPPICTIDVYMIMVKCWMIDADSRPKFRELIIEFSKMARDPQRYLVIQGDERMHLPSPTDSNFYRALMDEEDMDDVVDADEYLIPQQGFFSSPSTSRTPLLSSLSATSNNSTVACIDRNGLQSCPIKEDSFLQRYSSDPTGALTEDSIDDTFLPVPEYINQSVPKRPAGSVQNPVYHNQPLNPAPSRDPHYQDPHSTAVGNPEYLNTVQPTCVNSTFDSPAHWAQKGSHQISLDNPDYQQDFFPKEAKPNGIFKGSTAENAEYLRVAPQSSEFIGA
Sequence of intracellular phosphorylation of EGFR (Tyr1068) in PC-9 cells (Ex19Del) (P00533 with tags, fused parts or gaps DEL746-750): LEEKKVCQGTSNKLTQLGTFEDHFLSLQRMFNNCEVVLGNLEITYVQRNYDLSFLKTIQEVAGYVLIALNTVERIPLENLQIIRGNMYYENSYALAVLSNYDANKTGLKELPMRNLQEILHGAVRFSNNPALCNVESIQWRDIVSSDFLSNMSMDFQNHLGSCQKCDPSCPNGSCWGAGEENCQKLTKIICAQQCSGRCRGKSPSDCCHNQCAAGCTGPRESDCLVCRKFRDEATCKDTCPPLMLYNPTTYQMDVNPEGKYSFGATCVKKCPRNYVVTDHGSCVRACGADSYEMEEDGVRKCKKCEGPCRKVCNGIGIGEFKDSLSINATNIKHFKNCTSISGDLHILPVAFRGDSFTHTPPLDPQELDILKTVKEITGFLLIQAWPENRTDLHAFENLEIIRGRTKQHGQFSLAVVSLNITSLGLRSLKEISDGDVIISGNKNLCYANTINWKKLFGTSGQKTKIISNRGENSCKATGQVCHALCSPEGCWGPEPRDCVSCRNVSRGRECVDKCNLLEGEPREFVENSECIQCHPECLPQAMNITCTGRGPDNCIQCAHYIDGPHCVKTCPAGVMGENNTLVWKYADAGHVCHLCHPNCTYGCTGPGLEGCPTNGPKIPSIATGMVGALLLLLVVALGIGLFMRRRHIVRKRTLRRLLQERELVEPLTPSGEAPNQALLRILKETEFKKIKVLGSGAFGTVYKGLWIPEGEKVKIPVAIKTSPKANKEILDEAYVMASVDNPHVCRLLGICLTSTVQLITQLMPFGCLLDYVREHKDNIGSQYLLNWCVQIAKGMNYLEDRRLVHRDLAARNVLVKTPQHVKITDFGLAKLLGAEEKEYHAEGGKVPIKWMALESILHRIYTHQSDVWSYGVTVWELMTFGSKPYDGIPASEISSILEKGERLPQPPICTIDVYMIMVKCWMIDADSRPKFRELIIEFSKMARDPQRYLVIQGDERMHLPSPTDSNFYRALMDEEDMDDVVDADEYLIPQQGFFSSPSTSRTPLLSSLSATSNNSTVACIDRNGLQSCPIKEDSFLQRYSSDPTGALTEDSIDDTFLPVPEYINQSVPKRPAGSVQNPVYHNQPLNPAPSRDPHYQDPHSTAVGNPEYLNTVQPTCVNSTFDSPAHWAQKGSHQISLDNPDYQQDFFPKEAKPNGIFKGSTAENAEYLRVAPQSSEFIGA
T1 sequence (P00533 whole entry L858R, form open): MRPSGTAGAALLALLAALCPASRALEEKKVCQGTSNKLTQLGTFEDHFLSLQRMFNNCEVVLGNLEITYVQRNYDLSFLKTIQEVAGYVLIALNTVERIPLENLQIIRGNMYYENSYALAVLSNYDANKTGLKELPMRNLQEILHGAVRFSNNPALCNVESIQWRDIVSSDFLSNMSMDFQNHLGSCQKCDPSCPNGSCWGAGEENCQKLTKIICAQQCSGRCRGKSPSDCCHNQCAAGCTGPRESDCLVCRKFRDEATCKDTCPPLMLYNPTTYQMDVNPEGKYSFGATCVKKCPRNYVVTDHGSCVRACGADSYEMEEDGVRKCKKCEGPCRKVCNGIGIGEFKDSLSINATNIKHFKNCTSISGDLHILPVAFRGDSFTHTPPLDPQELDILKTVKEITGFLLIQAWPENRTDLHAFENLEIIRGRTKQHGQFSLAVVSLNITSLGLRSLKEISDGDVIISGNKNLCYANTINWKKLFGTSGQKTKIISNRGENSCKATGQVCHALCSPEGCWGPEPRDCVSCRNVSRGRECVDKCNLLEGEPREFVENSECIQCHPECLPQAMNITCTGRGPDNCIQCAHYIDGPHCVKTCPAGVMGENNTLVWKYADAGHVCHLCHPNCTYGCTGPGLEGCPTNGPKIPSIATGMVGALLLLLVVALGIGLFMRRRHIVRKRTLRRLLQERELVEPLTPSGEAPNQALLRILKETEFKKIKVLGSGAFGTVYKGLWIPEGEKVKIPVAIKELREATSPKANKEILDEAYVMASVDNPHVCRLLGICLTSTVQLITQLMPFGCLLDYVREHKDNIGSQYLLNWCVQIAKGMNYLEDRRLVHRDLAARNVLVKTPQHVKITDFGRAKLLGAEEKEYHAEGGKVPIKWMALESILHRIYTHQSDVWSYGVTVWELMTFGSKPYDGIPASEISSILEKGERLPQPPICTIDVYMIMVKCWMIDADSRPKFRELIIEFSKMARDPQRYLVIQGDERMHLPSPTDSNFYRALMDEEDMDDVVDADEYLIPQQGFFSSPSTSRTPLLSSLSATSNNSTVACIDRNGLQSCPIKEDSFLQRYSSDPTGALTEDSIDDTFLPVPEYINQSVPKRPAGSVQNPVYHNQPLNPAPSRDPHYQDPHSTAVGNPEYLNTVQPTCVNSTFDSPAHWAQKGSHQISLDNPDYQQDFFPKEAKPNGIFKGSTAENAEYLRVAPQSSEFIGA

Row | IC50 (EGFR enzyme) | IC50 (EGFR L858R) | IC50 (EGFR (d746-750)) | IC50 [1] | Compound | progression-free survival (PFS) (EGFR M+ NSCLC patients)
1 | > 10000 nM | – | – | – | [2H]c1c(-c2cc(O[C@H](C)CN(C)C)c3c(Nc4ccc5ncccc5c4OC([2H])([2H])[2H])ncnc3c2)cnn1C | –
2 | – | > 50.1 nM | 10.1 to 50 nM | > 50.1 nM | C[C@H](CN(C)C)Oc1cc(C2CC2)cc2ncnc(Nc3ccc4ncccc4c3F)c12 [Example 149, (R)-7-cyclopropyl-5-((1-(dimethylamino)propan-2-yl)oxy)-N-(5-fluoroquinolin-6-yl)quinazolin-4-amine] | –
3 | – | < 10 nM | < 10 nM | 10.1 to 50 nM | C[C@H](CN(C)C)Oc1cc(N2CC3(CNC3)C2)cc2ncnc(Nc3ccc4ncccc4c3F)c12 [Example 152, (R)-5-((1-(dimethylamino)propan-2-yl)oxy)-N-(5-fluoroquinolin-6-yl)-7-(2,6-diazaspiro[3.3]heptan-2-yl)quinazolin-4-amine] | –
4 | – | < 10 nM | < 10 nM | ≤ 10 nM | [2H]c1ccc2c(F)c(Nc3ncnc4cc(-c5cnn(C)c5)cc(O[C@H](C)CN(C)C)c34)ccc2n1 [Example 155, (R)-5-((1-(dimethylamino)propan-2-yl)oxy)-N-(5-fluoroquinolin-6-yl-2-d)-7-(1-methyl-1H-pyrazol-4-yl)quinazolin-4-amine] | –
5 | – | > 50.1 nM | > 50.1 nM | > 50.1 nM | C[C@H](Oc1cc(-c2cnn(C)c2)cc2ncnc(Nc3ccc4ncccc4c3F)c12)[C@@H]1COCCN1 [Example 157, N-(5-fluoroquinolin-6-yl)-7-(1-methyl-1H-pyrazol-4-yl)-5-((S)-1-((S)-morpholin-3-yl)ethoxy)quinazolin-4-amine] | –
6 | – | 10.1 to 50 nM | < 10 nM | ≤ 10 nM | [2H]c1c(-c2cc(O[C@H](C)CN(C)C)c3c(Nc4ccc5ncccc5c4F)ncnc3c2)cnn1C [Example 159, (R)-5-((1-(dimethylamino)propan-2-yl)oxy)-N-(5-fluoroquinolin-6-yl)-7-(1-methyl-1H-pyrazol-4-yl-5-d)quinazolin-4-amine] | –

More lines, now with the values behind:

Row | Compound | IC50 (EGFR enzyme) | IC50 (EGFR L858R) | IC50 (EGFR (d746-750)) | IC50 [1] | progression-free survival (PFS) (EGFR M+ NSCLC patients)
7 | C[C@H](CN(C)C)Oc1cc(N2CC3CC(C2)N3)cc2ncnc(Nc3ccc4ncccc4c3F)c12 [Example 150, 7-(3,6-diazabicyclo[3.1.1]heptan-3-yl)-5-(((R)-1-(dimethylamino)propan-2-yl)oxy)-N-(5-fluoroquinolin-6-yl)quinazolin-4-amine] | – | > 50.1 nM | > 50.1 nM | > 50.1 nM | –
8 | CC(=O)N1C2CC1CN(c1cc(O[C@H](C)CN(C)C)c3c(Nc4ccc5ncccc5c4F)ncnc3c1)C2 [Example 151, 1-(3-(5-(((R)-1-(dimethylamino)propan-2-yl)oxy)-4-((5-fluoroquinolin-6-yl)amino)quinazolin-7-yl)-3,6-diazabicyclo[3.1.1]heptan-6-yl)ethan-1-one] | – | > 50.1 nM | 10.1 to 50 nM | > 50.1 nM | –
9 | C[C@H](CN(C)C)Oc1cc(N(C)C)cc2ncnc(Nc3ccc4ncccc4c3F)c12 [Example 153, (R)-5-((1-(dimethylamino)propan-2-yl)oxy)-N4-(5-fluoroquinolin-6-yl)-N7,N7-dimethylquinazoline-4,7-diamine] | – | 10.1 to 50 nM | < 10 nM | ≤ 10 nM | –
10 | CC(=O)N1CC2(C1)CN(c1cc(O[C@H](C)CN(C)C)c3c(Nc4ccc5ncccc5c4F)ncnc3c1)C2 [Example 154, (R)-1-(6-(5-((1-(dimethylamino)propan-2-yl)oxy)-4-((5-fluoroquinolin-6-yl)amino)quinazolin-7-yl)-2,6-diazaspiro[3.3]heptan-2-yl)ethan-1-one] | – | < 10 nM | < 10 nM | ≤ 10 nM | –
11 | [2H]c1ccc2cc(Nc3ncnc4cc(-c5cnn(C)c5)cc(O[C@H](C)CN(C)C)c34)ccc2n1 [Example 156, (R)-5-((1-(dimethylamino)propan-2-yl)oxy)-7-(1-methyl-1H-pyrazol-4-yl)-N-(quinolin-6-yl-2-d)quinazolin-4-amine] | – | < 10 nM | < 10 nM | ≤ 10 nM | –
12 | [2H]c1c(-c2cnn(C)c2)cc(O[C@H](C)CN(C)C)c2c(Nc3ccc4ncccc4c3F)ncnc12 [Example 158, (R)-5-((1-(dimethylamino)propan-2-yl)oxy)-N-(5-fluoroquinolin-6-yl)-7-(1-methyl-1H-pyrazol-4-yl)quinazolin-8-d-4-amine] | – | < 10 nM | < 10 nM | ≤ 10 nM | –
13 | C=CC(=O)Nc1cc(Nc2nccc(-c3cn(C)c4ccccc34)n2)c(OC)cc1N(C)CCN(C)C [osimertinib] | – | – | – | – | 18.9 mo
